For the test, the system named is CD2F1 mice, L1210 leukemia ip, survival T/C. The test is described as follows: NCI In Vivo Anticancer Drug Screen. Data for tumor model L1210 Leukemia (intraperitoneal) in CD2F1 (CDF1) mice. To be noted: higher = longer survival. The gist of the method: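 Tumor-bearing mice (transplanted tumor) were split into treated and vehicle control groups, and the measured endpoint of each treated group was divided by that of its vehicle controls.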

Several values for one entry are separate records, joined by “and”; a condition that tells them apart may be missing. Equal entries are not always repeated. Inconclusive results and toxic doses are left out.

On to `Nc1nc(=O)n(C2OC(CO)C(O)C2O)cc1F` (stereo unspecified), for which the T/C (endpoint: mean survival time, dose: 0.25 mg/kg/injection, schedule: Q01DX009 (ip), vehicle: saline) is 121 % of control; the T/C (endpoint: mean survival time, dose: 0.5 mg/kg/injection, schedule: Q01DX009 (sc), vehicle: saline) was 97 % of control; the T/C (endpoint: mean survival time, dose: 1.0 mg/kg/injection, schedule: Q03HX024 (ip), vehicle: saline) is 346 % of control; the T/C (endpoint: mean survival time, dose: 2.0 mg/kg/injection, schedule: Q01DX009 (sc), vehicle: saline) is 121 % of control; the T/C (endpoint: mean survival time, dose: 4.0 mg/kg/injection, schedule: Q01DX009 (ip), vehicle: saline) is 157 % of control; the T/C (endpoint: mean survival time, dose: 4.0 mg/kg/injection, schedule: Q08DX002 (ip), vehicle: saline) is 106 % of control. Further, the T/C runs as follows: (endpoint: mean survival time, dose: 8.0 mg/kg/injection, schedule: Q01DX009 (sc), vehicle: saline) 152 % of control; (endpoint: mean survival time, dose: 8.0 mg/kg/injection, schedule: Q03HX024 (ip), vehicle: saline) 540 % of control; (endpoint: mean survival time, dose: 12.5 mg/kg/injection, schedule: Q01DX009 (ip), vehicle: saline) 218 % of control and 227 % of control; (endpoint: mean survival time, dose: 16.0 mg/kg/injection, schedule: Q01DX009 (ip), vehicle: saline) 186 % of control and 194 % of control; (endpoint: mean survival time, dose: 16.0 mg/kg/injection, schedule: Q03HX016 (ip), vehicle: saline) 248 % of control; (endpoint: mean survival time, dose: 16.0 mg/kg/injection, schedule: Q03HX024 (oral), vehicle: saline) 327 % of control. Also, the T/C reads like this: (endpoint: mean survival time, dose: 16.0 mg/kg/injection, schedule: Q08DX002 (ip), vehicle: saline) 114 % of control; (endpoint: mean survival time, dose: 18.8 mg/kg/injection, schedule: Q01DX008 (ip), vehicle: saline) 189 % of control; (endpoint: mean survival time, dose: 18.8 mg/kg/injection, schedule: Q01DX008 (oral), vehicle: saline) 167 % of control; (endpoint: mean survival time, dose: 20.0 mg/kg/injection, schedule: Q01DX007 (ip), vehicle: saline) 195 % of control; (endpoint: mean survival time, dose: 20.0 mg/kg/injection, schedule: Q01DX009 (ip), vehicle: saline) 187 % of control; (endpoint: mean survival time, dose: 20.0 mg/kg/injection, schedule: Q04DX003 (ip), vehicle: saline) 152 % of control. Moreover, the T/C reads like this: (endpoint: mean survival time, dose: 25.0 mg/kg/injection, schedule: Q01DX009 (ip), vehicle: saline) 215 % of control and 233 % of control; (endpoint: mean survival time, dose: 32.0 mg/kg/injection, schedule: Q01DX009 (ip), vehicle: saline) 244 % of control; (endpoint: mean survival time, dose: 32.0 mg/kg/injection, schedule: Q01DX009 (oral), vehicle: saline) 163 % of control; (endpoint: mean survival time, dose: 32.0 mg/kg/injection, schedule: Q01DX009 (sc), vehicle: saline) 196 % of control; (endpoint: mean survival time, dose: 32.0 mg/kg/injection, schedule: Q03HX008 (ip), vehicle: saline) 120 % of control; (endpoint: mean survival time, dose: 37.5 mg/kg/injection, schedule: Q01DX008 (ip), vehicle: saline) 169 % of control. In addition, the T/C was 175 % of control (endpoint: mean survival time, dose: 37.5 mg/kg/injection, schedule: Q01DX008 (oral), vehicle: saline); 204 % of control (endpoint: mean survival time, dose: 40.0 mg/kg/injection, schedule: Q01DX007 (ip), vehicle: saline); 229 % of control (endpoint: mean survival time, dose: 40.0 mg/kg/injection, schedule: Q01DX009 (ip), vehicle: saline); 152 % of control (endpoint: mean survival time, dose: 40.0 mg/kg/injection, schedule: Q04DX003 (ip), vehicle: saline); 153 % of control and 166 % of control (endpoint: mean survival time, dose: 50.0 mg/kg/injection, schedule: Q01DX009 (ip), vehicle: saline); 221 % of control (endpoint: mean survival time, dose: 64.0 mg/kg/injection, schedule: Q01DX009 (ip), vehicle: saline). For the same compound, the T/C was 176 % of control (endpoint: mean survival time, dose: 64.0 mg/kg/injection, schedule: Q01DX009 (oral), vehicle: saline); 377 % of control (endpoint: mean survival time, dose: 64.0 mg/kg/injection, schedule: Q03HX016 (ip), vehicle: saline); 90 % of control (endpoint: mean survival time, dose: 64.0 mg/kg/injection, schedule: Q03HX024 (oral), vehicle: saline); 116 % of control (endpoint: mean survival time, dose: 64.0 mg/kg/injection, schedule: Q08DX002 (ip), vehicle: saline); 202 % of control (endpoint: mean survival time, dose: 75.0 mg/kg/injection, schedule: Q01DX008 (oral), vehicle: saline); 182 % of control (endpoint: mean survival time, dose: 75.0 mg/kg/injection, schedule: Q04DX003 (ip), vehicle: saline). The T/C (endpoint: mean survival time, dose: 80.0 mg/kg/injection, schedule: Q01DX007 (ip), vehicle: saline) was 161 % of control; the T/C (endpoint: mean survival time, dose: 80.0 mg/kg/injection, schedule: Q01DX009 (ip), vehicle: saline) is 117 % of control; the T/C (endpoint: mean survival time, dose: 80.0 mg/kg/injection, schedule: Q04DX003 (ip), vehicle: saline) was 157 % of control; the T/C (endpoint: mean survival time, dose: 100.0 mg/kg/injection, schedule: Q01DX009 (ip), vehicle: saline) is 113 % of control and 115 % of control; the T/C (endpoint: mean survival time, dose: 128.0 mg/kg/injection, schedule: Q01DX001 (ip), vehicle: saline) was 120 % of control; the T/C (endpoint: mean survival time, dose: 128.0 mg/kg/injection, schedule: Q01DX001 (sc), vehicle: saline) was 123 % of control. Also, the T/C reads like this: (endpoint: mean survival time, dose: 128.0 mg/kg/injection, schedule: Q01DX009 (ip), vehicle: saline) 114 % of control; (endpoint: mean survival time, dose: 128.0 mg/kg/injection, schedule: Q01DX009 (sc), vehicle: saline) 88 % of control; (endpoint: mean survival time, dose: 128.0 mg/kg/injection, schedule: Q04DX003 (ip), vehicle: saline) 163 % of control; (endpoint: mean survival time, dose: 128.0 mg/kg/injection, schedule: Q04DX003 (oral), vehicle: saline) 158 % of control; (endpoint: mean survival time, dose: 150.0 mg/kg/injection, schedule: Q01DX001 (ip), vehicle: saline) 110 % of control; (endpoint: mean survival time, dose: 150.0 mg/kg/injection, schedule: Q01DX001 (oral), vehicle: saline) 115 % of control. Besides, the T/C (endpoint: mean survival time, dose: 150.0 mg/kg/injection, schedule: Q04DX003 (ip), vehicle: saline) was 151 % of control; the T/C (endpoint: mean survival time, dose: 200.0 mg/kg/injection, schedule: Q01DX009 (ip), vehicle: saline) is 101 % of control; the T/C (endpoint: mean survival time, dose: 256.0 mg/kg/injection, schedule: Q01DX009 (oral), vehicle: saline) was 109 % of control; the T/C (endpoint: mean survival time, dose: 256.0 mg/kg/injection, schedule: Q04DX003 (oral), vehicle: saline) is 171 % of control; the T/C (endpoint: mean survival time, dose: 300.0 mg/kg/injection, schedule: Q01DX001 (oral), vehicle: saline) was 115 % of control; the T/C (endpoint: mean survival time, dose: 300.0 mg/kg/injection, schedule: Q04DX003 (ip), vehicle: saline) is 239 % of control. For the same compound, the T/C is 153 % of control (endpoint: mean survival time, dose: 512.0 mg/kg/injection, schedule: Q01DX001 (sc), vehicle: saline); 206 % of control (endpoint: mean survival time, dose: 512.0 mg/kg/injection, schedule: Q04DX003 (oral), vehicle: saline); 172 % of control (endpoint: mean survival time, dose: 600.0 mg/kg/injection, schedule: Q01DX001 (ip), vehicle: saline); 259 % of control (endpoint: mean survival time, dose: 600.0 mg/kg/injection, schedule: Q04DX003 (ip), vehicle: saline); 161 % of control (endpoint: mean survival time, dose: 1024.0 mg/kg/injection, schedule: Q01DX001 (ip), vehicle: saline); 239 % of control (endpoint: mean survival time, dose: 1024.0 mg/kg/injection, schedule: Q01DX001 (sc), vehicle: saline). Moreover, the T/C is, setting by setting: (endpoint: mean survival time, dose: 1024.0 mg/kg/injection, schedule: Q04DX003 (ip), vehicle: saline) 286 % of control; (endpoint: mean survival time, dose: 1024.0 mg/kg/injection, schedule: Q04DX003 (oral), vehicle: saline) 122 % of control; (endpoint: mean survival time, dose: 1024.0 mg/kg/injection, schedule: Q08DX002 (ip), vehicle: saline) 250 % of control; (endpoint: mean survival time, dose: 1200.0 mg/kg/injection, schedule: Q01DX001 (ip), vehicle: saline) 183 % of control.
Turning to `Cc1ccc(Cl)c(I)c1`, the T/C runs as follows: (endpoint: mean survival time, dose: 100.0 mg/kg/injection, schedule: Q01DX001 (ip), vehicle: Klucel (hydroxypropylcellulose) (HPC)) 101 % of control; (endpoint: mean survival time, dose: 200.0 mg/kg/injection, schedule: Q01DX001 (ip), vehicle: Klucel (hydroxypropylcellulose) (HPC)) 103 % of control; (endpoint: mean survival time, dose: 400.0 mg/kg/injection, schedule: Q01DX001 (ip), vehicle: Klucel (hydroxypropylcellulose) (HPC)) 106 % of control.
Turning to `NCC[Se][Se]CCN`, the T/C is 98 % of control (endpoint: median survival time, dose: 1.56 mg/kg/injection, schedule: Q01DX009 (ip), vehicle: suspension in saline); 105 % of control (endpoint: median survival time, dose: 3.13 mg/kg/injection, schedule: Q01DX009 (ip), vehicle: suspension in saline); 108 % of control (endpoint: median survival time, dose: 6.25 mg/kg/injection, schedule: Q01DX009 (ip), vehicle: suspension in saline).
Turning to `OCCN=Cc1c[nH]c2ccccc12`, the T/C (endpoint: mean survival time, dose: 100.0 mg/kg/injection, schedule: Q01DX001 (ip), vehicle: saline with Tween-80) is 95 % of control; the T/C (endpoint: mean survival time, dose: 200.0 mg/kg/injection, schedule: Q01DX001 (ip), vehicle: saline with Tween-80) is 106 % of control; the T/C (endpoint: mean survival time, dose: 400.0 mg/kg/injection, schedule: Q01DX001 (ip), vehicle: saline with Tween-80) is 103 % of control.
As for `c1ccc([Si](c2ccccc2)(c2cccs2)c2cccs2)cc1`, the T/C by setting is: (endpoint: mean survival time, dose: 100.0 mg/kg/injection, schedule: Q04DX003 (ip), vehicle: saline with Tween-80) 102 % of control; (endpoint: mean survival time, dose: 200.0 mg/kg/injection, schedule: Q04DX003 (ip), vehicle: saline with Tween-80) 106 % of control; (endpoint: mean survival time, dose: 400.0 mg/kg/injection, schedule: Q04DX003 (ip), vehicle: saline with Tween-80) 114 % of control.

Source of the values: PubChem BioAssay AID256 (DTP/NCI, 2004).
